In patent publication US12357624B2, “Low dose pridopidine for Parkinson's Disease and other diseases associated with parkinsonism” (PRILENIA NEUROTHERAPEUTICS LTD., priority 2019, dated 2025):
Like-named read-outs stand apart in the source and are kept apart here.

Legend:
[1] = tested on: eIF2α-phosphorylation; settings: tested 0.03 to 150 μM
Text: The ratio of eIF2a-P to total eIF2a was quantified by immunoblot.

[2] = tested on: STHdhQ7/7 cells expressing Htt96Q-mCherry or Htt20Q-mCherry; settings: cells without aggregates or cells expressing Htt20Q-mCherry
Text: H2a-GFP was transiently co-expressed with Htt20Q-mCherry or Htt96Q-mCherry (exon 1) in STHdhQ7/7 cells. H2a-GFP aggregation is a marker of cell stress. […] For comparative purposes, 100% represents H2a-GFP relative intensity in untreated cells showing Htt96Q-mCherry aggregates, 0% is H2a-GFP relative intensity in untreated cells without Htt96Q-cherry aggregates.
ER stress levels can be measured using H2a-GFP as protein indicator of early stages of ER stress. H2a-GFP is a misfolded secretory protein which in response to ER stress accumulates. The STHdhQ7/7 is a striatal derived cell line from a knock in transgenic mouse containing homozygous humanized Huntingtin gene (HTT) with 7 polyglutamine repeats (wild type). STHdhQ7/7 cells are transfected with either Htt96Q-mCherry (mutant, mimics the typical pathogenic expression of Htt in HD patients) or Htt20Q-mCherry (normal) constructs. When the polyQ-expanded Htt protein (96Q) exonl fused to fluorescent mCherry protein is expressed, the levels and aggregation of the protein in individual cells can be monitored using a fluorescent microscope.

[3] = tested on: 6-OHDA-lesioned mice
Protocol: (§1) The study was performed in male C57B16J mice weighing approx. 25 g and having an age of 8 to 9 weeks at the beginning of the experiments. A total of 65 wild-type mice and 52 S1R knockout (KO) mice were used. S1R knockout mice and wild-type littermates (both genders) were bred on a C57BL6J background. Our S1R KO line is derived from the well-characterized Sigmar1^Gt(OST422756)Lex mouse strain distributed by the Mutant Mouse Resource Regional Centre (MMRRC) The mice were housed under a 12-h light/dark cycle with free access to food and water.
(§2) Lesions were performed according to previously described procedures [Francardo V, Bez F, Wieloch T, Nissbrandt H, Ruscher K, Cenci 33. MA. […] Brain: A Journal of Neurology. […] 6-OHDA-HCl (Sigma-Aldrich AB, Stockholm, Sweden) was freshly dissolved in 0.02% ascorbate-saline at the concentration of 3.2 mg free base per milliliter. […] The solution was injected via a glass capillary (tip diameter−50 (1 m) at the rate of 0.5 (1 L/min, and the capillary was left in place for 2 mi after each injection.
The first injection was given immediately upon completion of lesion surgery. […] An impaired capacity to perform adjusting steps during experimenter-imposed movements (stepping test) reflects both akinetic and postural deficits relevant to PD [Blume S R, Cass D K, Tseng K Y. Stepping test in mice: a reliable approach in determining forelimb akinesia in MPTP-induced Parkinson's Disease. Experimental Neurology. […] Experimental Neurology. […] The mouse was placed at the entrance of a custom-made plastic corridor (7 cm wide, 1 m long, flanked by 10-cm-high walls), gently lifted by the tail, and pulled backwards with a fixed speed (1 m/4 s). Each trial was video-recorded, and the footage was used to count the number of adjusting steps performed by each forelimb. Trials in which mice turned their body by 90° towards the walls of the corridor (in an attempt to escape or explore) were discarded. In each session, mice were tested until 3 valid trials per animal were obtained. Results were expressed as the percentage of steps performed by the forelimb contralateral to the lesion (left) over the total number of steps (mean of 3 trials per session).

[4] = tested on: 6-OHDA-lesioned mice; remark: listed apart in the source
Protocol: as §1, §2
The first injection was given immediately upon completion of lesion surgery. […] Forelimb use asymmetry during vertical exploration provides a validated measure of forelimb akinesia in hemiparkinsonian rodents [Lundblad M, Andersson M, Winkler C, Kirik D, Wierup N, Cenci M A. Pharmacological validation of behavioural measures of akinesia and dyskinesia in a rat model of Parkinson's disease. The European Journal of Neuroscience. […] The test was executed as in [Francardo V, Bez F, Wieloch T, Nissbrandt H, Ruscher K, Cenci 33. MA. […] The number of supporting wall contacts performed independently by the paw contralateral to the lesion was expressed as a percentage of all supporting wall contacts in each session.

[5] = tested on: TH immunostaining, ventrolateral and dorsolateral striatum
Text: Results were expressed as the total number of TH-immunopositive pixels per sample area (averaged across areas). […] The high-magnification analysis of TH fibers on random sample areas was complemented by optical density (O.D.) measurements of TH immunostaining across the entire dorsolateral and ventro-lateral striatum. Although this method is much less sensitive than the actual fiber analysis [Francardo V, Bez F, Wieloch T, Nissbrandt H, Ruscher K, Cenci 33. MA. […] Brain: A Journal of Neurology.
The O.D. analysis was carried out in the same rostrocaudal levels using NIH Image J Software, as described in [Francardo V, Recchia A, Popovic N, Andersson D, Nissbrandt H, Cenci M A. Impact of the lesion procedure on the profiles of motor impairment and molecular responsiveness to L-DOPA in the 6-hydroxydopamine mouse model of Parkinson's disease. Neurobiology of Disease.

[6] = tested on: SOD1G93A motor neurons; settings: 0.1 and 1 μM; cited from earlier work
[7] = tested on: B104 neuroblastoma cell line; settings: 100 nM and 1 μM; vs control untreated cells; cited from earlier work
[8] = week 1, pridopidine-treated mice (0.3 or 1.0 mg/kg)

## CCCN1CCC(c2cccc(S(C)(=O)=O)c2)CC1 [pridopidine, 4-[3-(methylsulfonyl)phenyl]-1-propyl-piperidine]
[1]
  effective concentrations for reduction of eIF2α-P: 0.03 to 3 µM
[2]
  H2a-GFP levels: does not alter H2a-GFP levels
[3]; 0.3 mg/kg s.c. daily
  stepping test performance: gradual improvement, diverging significantly from the saline-treated group on weeks 4 and 5
[3]; 0.3 mg/kg s.c. daily, week 5
  stepping test, improvement above the vehicle (saline): ~94%
[3]; 1.0 mg/kg s.c. daily, last 2 weeks
  stepping test performance: difference from saline-treated mice did not reach significance
[3]; 1.0 mg/kg s.c. daily, week 5
  stepping test, difference vs sham: ~49%
[3]; [8]
  stepping test, difference vs sham: ~60%
[4]; 0.3 mg/kg s.c. daily
  cylinder test, contralateral forelimb use: reaching levels of performance comparable with sham-control values on weeks 4 and 5
[4]; 1.0 mg/kg s.c. daily
  cylinder test, contralateral forelimb use: did not restore contralateral forelimb use in the cylinder test
[4]; 1.0 mg/kg s.c. daily, week 5
  cylinder test, contralateral forelimb use, difference vs sham: ~33%
[4]; [8]
  cylinder test, contralateral forelimb use, difference vs sham: ~40%
[5]; 0.3 mg/kg, dorsolateral striatum
  TH O.D. vs saline: significant, albeit smaller increase
[5]; 0.3 mg/kg, ventrolateral striatum
  TH O.D. above saline control levels: greater than twofold increase
[5]; 1 mg/kg, dorsolateral striatum
  TH O.D. vs saline: only a trend
[5]; 1 mg/kg, ventrolateral striatum
  TH O.D. vs saline: trend towards an increase that did not reach statistical significance
[6]
  BDNF axonal transport velocity: significantly accelerates the velocity
[7]
  BDNF secretion: enhanced BDNF secretion
